Assays:
[1] = target: T1, Prostaglandin G/H synthase 1 (Ovis aries, UniProt P05979); test: COX Inhibitor Screening Assay; conditions: pH 8; 25 °C
T1 sequence (P05979 whole entry): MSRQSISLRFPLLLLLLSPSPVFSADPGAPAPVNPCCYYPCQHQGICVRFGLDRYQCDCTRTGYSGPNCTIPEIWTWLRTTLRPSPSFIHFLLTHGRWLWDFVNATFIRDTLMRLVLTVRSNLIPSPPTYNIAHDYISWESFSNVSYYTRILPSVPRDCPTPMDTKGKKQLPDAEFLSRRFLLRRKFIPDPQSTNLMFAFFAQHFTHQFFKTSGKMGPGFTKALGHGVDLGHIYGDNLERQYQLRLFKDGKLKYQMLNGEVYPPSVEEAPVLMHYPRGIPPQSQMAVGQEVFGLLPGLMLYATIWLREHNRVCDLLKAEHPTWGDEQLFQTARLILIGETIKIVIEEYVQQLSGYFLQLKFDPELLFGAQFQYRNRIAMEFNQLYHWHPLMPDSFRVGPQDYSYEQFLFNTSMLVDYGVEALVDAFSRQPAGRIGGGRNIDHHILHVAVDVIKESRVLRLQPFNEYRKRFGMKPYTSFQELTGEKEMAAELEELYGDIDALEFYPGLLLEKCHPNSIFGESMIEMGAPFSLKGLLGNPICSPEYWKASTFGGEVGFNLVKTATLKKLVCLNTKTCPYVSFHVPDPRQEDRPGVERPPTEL
Description: (§1) Dilute 3 mL of assay buffer concentrate with 27 mL of HPLC - grade water. This final assay buffer (0.1 M Tris-HCl, pH 8) should be used for dilution of heme and COX enzymes prior to assaying. This vial contains a solution of heme in dimethylsulphoxide. Dilute 88 μL of heme with 1.912 mL of diluted assay buffer prior to use. A vial contains a solution of ovine COX-1 and should be kept on ice when thawed. Dilute 200 μL of enzyme with 400 μL of diluted assay buffer and store on ice. A vial contains a solution of ovine COX-2 and should be kept on ice when thawed. Dilute 200 μL of enzyme with 400 μL of diluted assay buffer and store on ice. A vial contains a solution or arachidonic acid in ethanol. […] Use the prepared arachidonic acid solution within 30 min. A 20 μL aliquot will yield a final concentration of 100 μM in the wells. A vial contains 0.1 M potassium hydroxide (KOH). A vial contains a solution of TMPD. Background wells: add 160 μL of assay buffer, and 10 μL of heme to three wells. 100% Initial Activity wells: add 150 μL assay buffer, 10 μL of heme, and 10 μL of enzyme (either COX-1 or COX-2) to three wells. Inhibitor wells: add 150 μL of assay buffer, 10 μL of heme, and10 μL of enzyme (either COX-1 or COX-2) to three wells. Add 10 μL of inhibitor to the inhibitor wells and 10 μL of solvent (methanol, dimethylsulphoxide or ethanol) to the 100% Initial Activity wells and background wells, this process was repeated three times. Carefully shake the plate for a few seconds and incubate for five minutes at 25 °C. Add 20 μL of the colorimetric substratesolution to all the wells that you are using. Add 20 μL of arachidonic acid to all the wells you are using. Carefully shake the plate for few seconds and incubate for five minutes at 25 °C. Read the absorbance at 590 nm using a plate reader.

[2] = target: T2, Prostaglandin G/H synthase 2 (Ovis aries, UniProt P79208); test: COX Inhibitor Screening Assay; conditions: pH 8; 25 °C
T2 sequence (P79208 whole entry): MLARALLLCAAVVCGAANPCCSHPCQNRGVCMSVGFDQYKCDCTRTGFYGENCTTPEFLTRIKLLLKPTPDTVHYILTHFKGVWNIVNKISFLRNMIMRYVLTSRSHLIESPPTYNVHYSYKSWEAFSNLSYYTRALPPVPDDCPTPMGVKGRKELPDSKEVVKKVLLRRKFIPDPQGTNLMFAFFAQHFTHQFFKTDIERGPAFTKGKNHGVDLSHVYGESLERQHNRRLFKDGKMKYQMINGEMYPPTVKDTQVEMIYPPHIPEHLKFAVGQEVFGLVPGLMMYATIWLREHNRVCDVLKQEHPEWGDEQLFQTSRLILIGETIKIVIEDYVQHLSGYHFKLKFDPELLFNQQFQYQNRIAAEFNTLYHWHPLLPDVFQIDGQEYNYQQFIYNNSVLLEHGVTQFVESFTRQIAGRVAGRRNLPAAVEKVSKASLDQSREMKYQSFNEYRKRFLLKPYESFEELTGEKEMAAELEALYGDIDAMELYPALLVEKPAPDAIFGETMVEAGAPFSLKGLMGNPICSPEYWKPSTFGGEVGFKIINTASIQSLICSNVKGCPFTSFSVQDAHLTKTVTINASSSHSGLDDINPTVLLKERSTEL
Description: as §1

Structure (SMILES) | IC50 [1] [nM] | IC50 [2] [nM]
O=C1OC(c2cccnc2)=N/C1=C\c1cccnc1 [2-(pyridin-3-yl)-4-(pyridin-3-ylmethylene)oxazol-5(4H)-one (IIIg)] | 340 | 75
O=C1NN(c2ccccc2)C(c2cccnc2)=N/C1=C/c1cccnc1 [2-Phenyl-3-(pyridin-3-yl)-5-(pyridin-3-ylmethylene)-1,2-dihydro-1,2,4-triazin-6(5H)-one (IVg)] | 84 | 14
O=C1OC(c2cccnc2)=N/C1=C\c1ccccc1O [4-(2-Hydroxybenzylidene)-2-(pyridin-3-yl)oxazol-5(4H)-one (IIIf)] | 440 | 85
CN(C)c1ccc(/C=C2/N=C(c3cccnc3)OC2=O)cc1 [4-(4-(Dimethylamino)benzylidene)-2-(pyridin-3-yl)oxazol-5(4H)-one (IIIe)] | 80 | 19
O=C1OC(c2cccnc2)=N/C1=C/c1ccc(Cl)cc1 [4-(4-Chlorobenzylidene)-2-(pyridin-3-yl)oxazol-5(4H)-one (IIIb)] | 450 | 106
O=C1OC(c2cccnc2)=N/C1=C/c1ccc(O)cc1 [4-(4-Hydroxybenzylidene)-2-(pyridin-3-yl)oxazol-5(4H)-one (IIIc)] | 270 | 24
COc1ccc(/C=C2/N=C(c3cccnc3)OC2=O)cc1 [4-(4-Methoxybenzylidene)-2-(pyridin-3-yl)oxazol-5(4H)-one (IIId)] | 210 | 59
O=C1OC(c2cccnc2)=N/C1=C\c1ccccc1 [4-Benzylidene-2-(pyridin-3-yl) oxazol-5(4H)-one (IIIa)] | 440 | 77
O=C1NN(c2ccccc2)C(c2cccnc2)=N/C1=C/c1ccccc1O [5-(2-Hydroxybenzylidene)-2-phenyl-3-(pyridin-3-yl)-1,2-dihydro-1,2,4-triazin-6(5H)-one (IVf)] | 85 | 17
CN(C)c1ccc(/C=C2/N=C(c3cccnc3)N(c3ccccc3)NC2=O)cc1 [5-(4-(Dimethylamino)benzylidene)-2-phenyl-3-(pyridin-3-yl)-1,2-dihydro-1,2,4-triazin-6(5H)-one (IVe)] | 116 | 19
O=C1NN(c2ccccc2)C(c2cccnc2)=N/C1=C/c1ccc(Cl)cc1 [5-(4-Chlorobenzylidene)-2-phenyl-3-(pyridin-3-yl)-1,2-dihydro-1,2,4-triazin-6(5H)-one (IVb)] | 160 | 34
O=C1NN(c2ccccc2)C(c2cccnc2)=N/C1=C/c1ccc(O)cc1 [5-(4-Hydroxybenzylidene)-2-phenyl-3-(pyridin-3-yl)-1,2-dihydro-1,2,4-triazin-6(5H)-one (IVc)] | 96 | 19
COc1ccc(/C=C2/N=C(c3cccnc3)N(c3ccccc3)NC2=O)cc1 [5-(4-Methoxybenzylidene)-2-phenyl-3-(pyridin-3-yl)-1,2-dihydro-1,2,4-triazin-6(5H)-one (IVd)] | 108 | –
O=C1NN(c2ccccc2)C(c2cccnc2)=N/C1=C/c1ccccc1 [5-Benzylidene-2-phenyl-3-(pyridin-3-yl)-1,2-dihydro-1,2,4-triazin-6(5H)-one (IVa)] | 150 | 35
